Experimental data as given in patent US20080076147A1, “BIOFILM SAMPLING DEVICE” (BOARD OF TRUSTEES OF SOUTHERN ILLINOIS UNIVERSITY, priority 2006, published 2008).

Experiments:
Assay in all cases: Biocide kill of planktonic cells and biofilm on vascular catheter (serum flow model)
Type in all cases: cell-based
[1] = test system: Staphylococcus epidermis; settings: 5 to 60 minutes
From the text: (§1) A system as shown in FIG. 6 was used in this study. Serum and a biocide were placed in sealed bottles as the first fluid source 505 and the second fluid source 509, respectively. The fluid sources were connected to a pump 515 by conventional IV tubing. A second pump 531 was used to deliver the fluid mixture to the vascular catheter 3 positioned in the sampling apparatus 1.
(§2) Initially, only the first fluid source, serum inoculated with Acinetobacter baumanii (10×10^9 CFU/ml), was used to contaminate the catheter with planktonic cells. The inoculated fluid continuously flowed through IV tubing directly through the catheter for […] to form a layer of planktonic cells on the catheter. Fluid flow was then stopped and the tubing was then reconfigured as shown in FIG. 6 so that the second fluid source could be introduced. In these test runs, the first fluid source was inoculated with the same concentration of bacteria, and the second fluid source was a biocide (16-16,000 ppm) selected from hydrogen peroxide (H2O2), sodium hypochlorite (SHC), peracetic acid (PAA) and gluteraldehyde (GLT). The fluid mixture continuously flowed through the catheter for 5, 10, 15, 30, 45 or 60 minutes before fluid flow was discontinued to determine bacterial resistance of the planktonic cells on the catheter. In all, six runs were completed for each of four different biocides. After each run, the test catheter was then cut aseptically into 1 cm segments. The segments were transferred to test tubes containing one ml saline and the adherent cells were dislodged by sonication in an aquasonic device, vortexed for about one minute, and then counted on Tropic soya Agar. The number of viable cells were determined for each catheter and were compared to the number of viable cells in control samples (i.e., biocide-free serum) to calculate the biocide concentration required to kill 50% of the bacteria in the biofilm at the same time interval. Instead of saline, other appropriate buffer solutions can be used. In addition to plating cells on agar and counting the number of colonies, the amount of biofilm formed can be determined by a semiquantitive microtiter plate method. For example, adherent cells can be dislodged from test catheters as described above. The aliquots of solutions containing the cells from each catheter piece can then be added separately to wells of a 96-well tissue culture plate and incubated at 37° C. for 24 h. After several (e.g., three) washes with PBS, any remaining biofilm is stained with safranin O dye for 1 min and washed with PBS again. Optical density at 492 nm is determined with a 96-well plate spectrometer reader. For each time point, an aliquot without biocide is a positive control. Percent inhibition of biofilm accumulation can be determined from the formula (A492positive−A492biocide)/(A492positive−A492)×100%, Such plating methods are well known to one skilled in the art and could be modified as desired for analysis of the biofilm.
(§3) For determination of the bacterial resistance of the biofilm formed on the catheter, the method described above was repeated using the same conditions except that the inoculated fluid continuously flowed through the catheter for two hours before fluid flow was discontinued to form a biofilm on the catheter.
The experiment was repeated as described above, except that Staphylococcus epidermis (1×10^9 CFU/ml) was used to inoculate the serum.

[2] = test system: Burkholderia cepacia; settings: 5 to 60 minutes
From the text: as §1, §2, §3
The experiment was repeated as described above, except that Burkholderia cepacia (1×10^9 CFU/ml) was used to inoculate the serum.

[3] = test system: Pseudomonas aeruginosa; settings: 5 to 60 minutes
From the text: as §1, §2, §3
The experiment was repeated as described above, except that Pseudomonas aeruginosa (1×10^9 CFU/ml) was used to inoculate the serum.

[4] = test system: Enterococcus faecalis; settings: serum, 5 to 60 minutes
[5] = test system: Acinetobacter baumanii; settings: biofilm on vascular catheter, 5 to 60 minutes, FIG. 10B
From the text: as §1
Initially, only the first fluid source, serum inoculated with Acinetobacter baumanii (10×10^9 CFU/ml), was used to contaminate the catheter with planktonic cells. The inoculated fluid continuously flowed through IV tubing directly through the catheter for […] to form a layer of planktonic cells on the catheter. […] The segments were transferred to test tubes containing one ml saline and the adherent cells were dislodged by sonication in an aquasonic device, vortexed for about one minute, and then counted on Tropic soya Agar. The number of viable cells were determined for each catheter and were compared to the number of viable cells in control samples (i.e., biocide-free serum) to calculate the biocide concentration required to kill 50% of the bacteria in the biofilm at the same time interval. […] In addition to plating cells on agar and counting the number of colonies, the amount of biofilm formed can be determined by a semiquantitive microtiter plate method. […]

[6] = test system: Stenotrophomonas maltophilia; settings: 5 to 60 minutes
From the text: as §1, §2, §3
The experiment was repeated as described above, except that Stenotrophomonas maltophilia (1×10^9 CFU/ml) was used to inoculate the serum.

[7] = test system: methicillin resistant Staphylococcus aureus (MRSA); settings: biofilm on vascular catheter, 5 to 60 minutes, FIG. 14B
[8] = test system: Escherichia coli; settings: biofilm on vascular catheter, over all time periods (5 to 60 minutes), FIG. 12B

CC(=O)OO [PAA, peracetic acid]
biofilm kill (biocide concentration required to kill 50% of bacteria that grew in the biofilm) ([1]; biofilm on vascular catheter, FIG. 15B): most effective
planktonic cell kill (biocide concentration required to kill 100% of bacteria present as planktonic cells) ([1]; planktonic cells on vascular catheter, FIG. 15A): performed similarly in planktonic cell kill and outperformed hydrogen peroxide
biofilm kill (biocide concentration required to kill 50% of bacteria that grew in the biofilm) ([2]; biofilm on vascular catheter, FIG. 11B): most effective
planktonic cell kill (biocide concentration required to kill 100% of bacteria present as planktonic cells) ([2]; planktonic cells on vascular catheter, FIG. 11A): performed comparably and were more effective than hydrogen peroxide
biofilm kill (biocide concentration required to kill 50% of bacteria that grew in the biofilm) ([3]; biofilm on vascular catheter, FIG. 16B): most effective
planktonic cell kill (biocide concentration required to kill 100% of bacteria present as planktonic cells) ([3]; planktonic cells on vascular catheter, FIG. 16A): performed comparably and were more effective than hydrogen peroxide and SHC
biofilm kill (biocide concentration required to kill 50% of bacteria that grew in the biofilm) ([4]; biofilm on vascular catheter, FIG. 13B): most effective
planktonic cell kill (biocide concentration required to kill 100% of bacteria present as planktonic cells) ([4]; planktonic cells on vascular catheter, FIG. 13A): most effective
biofilm kill (biocide concentration required to kill 50% of bacteria that grew in the biofilm) [5]: most effective
biofilm kill (biocide concentration required to kill 50% of bacteria that grew in the biofilm) ([6]; biofilm on vascular catheter, FIG. 17B): most effective
planktonic cell kill (biocide concentration required to kill 100% of bacteria present as planktonic cells) ([6]; planktonic cells on vascular catheter, FIG. 17A): GLT was somewhat more effective in killing planktonic cells as compared to SHC or PAA
biofilm kill (biocide concentration required to kill 50% of bacteria that grew in the biofilm) [7]: most effective
biofilm kill (biocide concentration required to kill 50% of bacteria that grew in the biofilm) [8]: most effective
